Laboratory results from PubChem BioAssay AID2060899 (Molecular Pharmacology Branch, DTP, NCI, 2025).

Tested on: 565726-208-R1-J5-PDC complex spheroids, growth inhibition
Test: Anticancer human tumor 565726-208-R1-J5-PDC patient-derived pancreatic adenocarcinoma cell line growth inhibition [RAS]
Details: for IC50: curve of first compound; for viability, T/C: stronger effect = lower value; active means viability on the fitted dose curve at most 10% of control; inactive means the rest
How it was run: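 Multi-cell-type spheroids: tumor cells plus HUVEC endothelial cells and mesenchymal stem cells. RAS-pathway inhibitors were combined with targeted agents, each dosed in half-log steps down from clinical Cmax, or from 10 microM when Cmax was unknown.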

[1] = second compound 0.000949 µM, first compound 0.0316 µM
[2] = second compound 0.000949 µM, first compound 0.1 µM
[3] = second compound 0.000949 µM, first compound 0.316 µM
[4] = second compound 0.000949 µM, first compound 1 µM
[5] = second compound 0.000949 µM, first compound 3.16 µM
[6] = second compound 0.000949 µM, first compound 10 µM
[7] = second compound 0.003 µM, first compound 0.0316 µM
[8] = second compound 0.003 µM, first compound 0.1 µM
[9] = second compound 0.003 µM, first compound 0.316 µM
[10] = second compound 0.003 µM, first compound 1 µM
[11] = second compound 0.003 µM, first compound 3.16 µM
[12] = second compound 0.003 µM, first compound 10 µM
[13] = second compound 0.00949 µM, first compound 0.0316 µM
[14] = second compound 0.00949 µM, first compound 0.1 µM
[15] = second compound 0.00949 µM, first compound 0.316 µM
[16] = second compound 0.00949 µM, first compound 1 µM
[17] = second compound 0.00949 µM, first compound 3.16 µM
[18] = second compound 0.00949 µM, first compound 10 µM
[19] = second compound 0.03 µM, first compound 0.0316 µM
[20] = second compound 0.03 µM, first compound 0.1 µM
[21] = second compound 0.03 µM, first compound 0.316 µM
[22] = second compound 0.03 µM, first compound 1 µM
[23] = second compound 0.03 µM, first compound 3.16 µM
[24] = second compound 0.03 µM, first compound 10 µM
[25] = second compound 0.0949 µM, first compound 0.0316 µM
[26] = second compound 0.0949 µM, first compound 0.1 µM
[27] = second compound 0.0949 µM, first compound 0.316 µM
[28] = second compound 0.0949 µM, first compound 1 µM
[29] = second compound 0.0949 µM, first compound 3.16 µM
[30] = second compound 0.0949 µM, first compound 10 µM
[31] = second compound 0.3 µM, first compound 0.0316 µM
[32] = second compound 0.3 µM, first compound 0.1 µM
[33] = second compound 0.3 µM, first compound 0.316 µM
[34] = second compound 0.3 µM, first compound 1 µM
[35] = second compound 0.3 µM, first compound 3.16 µM
[36] = second compound 0.3 µM, first compound 10 µM
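Further: spheroids exposed to compounds for seven days before readout.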
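Wherever viability, T/C is given: 100% = DMSO vehicle control viability.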

CC1(O)CCCC1n1c(=O)c(C(F)F)cc2cnc(NC3CCN(S(C)(=O)=O)CC3)nc21 (centres undefined) + CCn1c(-c2cccnc2C(C)OC)c2c3cc(ccc31)N1CCOC(CC(NC(=O)C(C(C)C)N(C)C(=O)C3(F)CCN(C(=O)C#CC(C)(C)N(C)C)CC3)C(=O)N3CCCC(N3)C(=O)OCC(C)(C)C2)C1
1580 nM: IC50 (second compound 0.000949 µM)
active: viability, T/C [6] 4.71% | viability, T/C [12] 5.57% | viability, T/C [18] 4.99% | viability, T/C [24] 5.14% | viability, T/C [36] 3.4%
1740 nM: IC50 (second compound 0.003 µM)
734 nM: IC50 (second compound 0.0949 µM)
1650 nM: IC50 (second compound 0.3 µM)
inactive: viability, T/C [1] 89.3% | viability, T/C [2] 65.9% | viability, T/C [3] 61.5% | viability, T/C [4] 55.9% | viability, T/C [5] 48% | viability, T/C [7] 92.6% | viability, T/C [8] 66.7% | viability, T/C [9] 59.9% | viability, T/C [10] 61.9% | viability, T/C [11] 47.5% | viability, T/C [13] 87.1% | viability, T/C [14] 73.3% | viability, T/C [15] 64% | viability, T/C [16] 65.4% | viability, T/C [17] 50.4% | viability, T/C [19] 79.3% | viability, T/C [20] 70.6% | viability, T/C [21] 64.6% | viability, T/C [22] 55% | viability, T/C [23] 51.5% | viability, T/C [25] 86.3% | viability, T/C [26] 72.7% | viability, T/C [27] 53.8% | viability, T/C [28] 53% | viability, T/C [29] 49.9% | viability, T/C [30] 3.75% | viability, T/C [31] 68% | viability, T/C [32] 64.2% | viability, T/C [33] 54.3% | viability, T/C [34] 54.1% | viability, T/C [35] 45.4%
2480 nM: IC50 (second compound 0.00949 µM)
2150 nM: IC50 (second compound 0.03 µM)

CCC(CC)c1cc(NC2CCC(N)C2)n2nccc2n1 (centres undefined) + CCn1c(-c2cccnc2C(C)OC)c2c3cc(ccc31)N1CCOC(CC(NC(=O)C(C(C)C)N(C)C(=O)C3(F)CCN(C(=O)C#CC(C)(C)N(C)C)CC3)C(=O)N3CCCC(N3)C(=O)OCC(C)(C)C2)C1
1480 nM: IC50 (second compound 0.00949 µM)
1040 nM: IC50 (second compound 0.3 µM)
1340 nM: IC50 (second compound 0.0949 µM)
active: viability, T/C [5] 0.76% | viability, T/C [6] 0.94% | viability, T/C [11] 0.77% | viability, T/C [12] 0.9% | viability, T/C [17] 0.96% | viability, T/C [18] 0.75% | viability, T/C [23] 0.82% | viability, T/C [24] 1.41% | viability, T/C [29] 0.68% | viability, T/C [30] 0.5% | viability, T/C [35] 0.87% | viability, T/C [36] 1.78%
inactive: viability, T/C [1] 106% | viability, T/C [2] 103% | viability, T/C [3] 101% | viability, T/C [4] 72% | viability, T/C [7] 104% | viability, T/C [8] 104% | viability, T/C [9] 115% | viability, T/C [10] 76.4% | viability, T/C [13] 112% | viability, T/C [14] 105% | viability, T/C [15] 101% | viability, T/C [16] 74.9% | viability, T/C [19] 108% | viability, T/C [20] 109% | viability, T/C [21] 115% | viability, T/C [22] 68.9% | viability, T/C [25] 92.9% | viability, T/C [26] 109% | viability, T/C [27] 94.7% | viability, T/C [28] 66.9% | viability, T/C [31] 78.5% | viability, T/C [32] 88.7% | viability, T/C [33] 96.4% | viability, T/C [34] 51.9%
1380 nM: IC50 (second compound 0.03 µM)
1490 nM: IC50 (second compound 0.003 µM)
1430 nM: IC50 (second compound 0.000949 µM)
